# In ChEMBL document CHEMBL1201862, “PubChem BioAssay data set” (2004):
#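 96-well plates; 48 h exposure; 5 concentrations. Endpoints by linear interpolation between flanking doses. Not reached: highest tested concentration assigned. Here, GI50 denotes the concentration required for 50% inhibition of growth.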 The source made the active and inactive calls. Rule as the data show it: active = GI50 up to about 1.1 µM and inactive = higher.
# How the values were obtained:
# Experiment in all cases: NCI anticancer screen, dose series, 48 h
# 786-0 = test system: 786-0
# A498 = test system: A498
# A549 = test system: A549
# ACHN = test system: ACHN
# BT-549 = test system: BT-549
# CAKI-1 = test system: CAKI-1
# CCRF-CEM = test system: CCRF-CEM
# COLO 205 = test system: COLO 205
# DU-145 = test system: DU-145
# EKVX = test system: EKVX
# HCT-116 = test system: HCT-116
# HCT-15 = test system: HCT-15
# HL-60 = test system: HL-60
# HOP-62 = test system: HOP-62
# HOP-92 = test system: HOP-92
# HT-29 = test system: HT-29
# Hs-578T = test system: Hs-578T
# IGROV-1 = test system: IGROV-1
# KM12 = test system: KM12
# LOX IMVI = test system: LOX IMVI
# M14 = test system: M14
# MCF7 = test system: MCF7
# MDA-MB-231 = test system: MDA-MB-231
# MDA-MB-435 = test system: MDA-MB-435
# MDA-N = test system: MDA-N
# MOLT-4 = test system: MOLT-4
# Malme-3M = test system: Malme-3M
# NCI-H226 = test system: NCI-H226
# NCI-H23 = test system: NCI-H23
# NCI-H460 = test system: NCI-H460
# NCI-H522 = test system: NCI-H522
# NCI/ADR-RES = test system: NCI/ADR-RES
# OVCAR-3 = test system: OVCAR-3
# OVCAR-4 = test system: OVCAR-4
# OVCAR-5 = test system: OVCAR-5
# OVCAR-8 = test system: OVCAR-8
# PC-3 = test system: PC-3
# RPMI-8226 = test system: RPMI-8226
# RXF 393 = test system: RXF 393
# SF-268 = test system: SF-268
# SF-295 = test system: SF-295
# SF-539 = test system: SF-539
# SK-MEL-28 = test system: SK-MEL-28
# SK-MEL-2 = test system: SK-MEL-2
# SK-MEL-5 = test system: SK-MEL-5
# SK-OV-3 = test system: SK-OV-3
# SN12C = test system: SN12C
# SNB-19 = test system: SNB-19
# SNB-75 = test system: SNB-75
# SR = test system: SR
# SW-620 = test system: SW-620
# TK-10 = test system: TK-10
# U-251 = test system: U-251
# UACC-257 = test system: UACC-257
# UACC-62 = test system: UACC-62
# UO-31 = test system: UO-31
structure (smiles),measurement,setting,value
NCCSC(c1ccccc1)c1ccccc1,GI50,786-0,17.5 µM (inactive)
same,GI50,A498,22.4 µM (inactive)
same,GI50,A549,39.3 µM (inactive)
same,GI50,ACHN,31.8 µM (inactive)
same,GI50,BT-549,43.8 µM (inactive)
same,GI50,CAKI-1,24.9 µM (inactive)
same,GI50,CCRF-CEM,32.6 µM (inactive)
same,GI50,COLO 205,23.7 µM (inactive)
same,GI50,DU-145,29.2 µM (inactive)
same,GI50,EKVX,30.7 µM (inactive)
same,GI50,HCT-116,16.7 µM (inactive)
same,GI50,HCT-15,33.2 µM
same,GI50,HL-60,0.314 µM (active)
same,GI50,HOP-62,17.5 µM (inactive)
same,GI50,HOP-92,10.6 µM (inactive)
same,GI50,HT-29,17.7 µM (inactive)
same,GI50,Hs-578T,24.2 µM (inactive)
same,GI50,IGROV-1,13.1 µM (inactive)
same,GI50,KM12,19.7 µM (inactive)
same,GI50,LOX IMVI,16.3 µM (inactive)
same,GI50,M14,14.7 µM (inactive)
same,GI50,MCF7,19.3 µM (inactive)
same,GI50,MDA-MB-231,18.6 µM (inactive)
same,GI50,MDA-MB-435,19.1 µM (inactive)
same,GI50,MDA-N,18.7 µM (inactive)
same,GI50,MOLT-4,15.7 µM (inactive)
same,GI50,Malme-3M,19.5 µM (inactive)
same,GI50,NCI-H226,31.2 µM (inactive)
same,GI50,NCI-H23,37.2 µM (inactive)
same,GI50,NCI-H460,15.1 µM (inactive)
same,GI50,NCI-H522,19.1 µM (inactive)
same,GI50,NCI/ADR-RES,31.3 µM (inactive)
same,GI50,OVCAR-3,19.1 µM (inactive)
same,GI50,OVCAR-4,20.4 µM (inactive)
same,GI50,OVCAR-5,17.2 µM (inactive)
same,GI50,OVCAR-8,20.6 µM (inactive)
same,GI50,PC-3,21.8 µM (inactive)
same,GI50,RPMI-8226,16 µM (inactive)
same,GI50,RXF 393,17.7 µM (inactive)
same,GI50,SF-268,26.6 µM (inactive)
same,GI50,SF-295,18.2 µM (inactive)
same,GI50,SF-539,20.7 µM (inactive)
same,GI50,SK-MEL-28,18.6 µM (inactive)
same,GI50,SK-MEL-2,18.4 µM (inactive)
same,GI50,SK-MEL-5,16.7 µM (inactive)
same,GI50,SK-OV-3,22.5 µM (inactive)
same,GI50,SN12C,35.5 µM (inactive)
same,GI50,SNB-19,51.9 µM (inactive)
same,GI50,SNB-75,24.5 µM (inactive)
same,GI50,SR,17.6 µM (inactive)
same,GI50,SW-620,18.5 µM (inactive)
same,GI50,TK-10,16.9 µM (inactive)
same,GI50,U-251,18.2 µM (inactive)
same,GI50,UACC-257,16.3 µM (inactive)
same,GI50,UACC-62,17 µM (inactive)
same,GI50,UO-31,15 µM (inactive)
